Structures are written as SMILES. Converted amounts (≈) assume the structure as drawn. The source made the active and inactive calls. The calls are words filed in the database; no cut-off is given here.

Assay [1] relates to Candida albicans. As to the kind of experiment: Antifungal activity against Candida albicans after 48 hrs by spectrophotometry. It is filed as functional.
A further assay deals with Aspergillus fumigatus. As to the kind of experiment: Antifungal activity against Aspergillus fumigatus after 48 hrs by spectrophotometry. It is filed as functional.
The subject of the next assay is Nakaseomyces glabratus. As to the kind of experiment: Antifungal activity against Candida glabrata after 48 hrs by spectrophotometry. It is filed as functional.
The next assay concerns Caenorhabditis elegans. In words: Growth inhibition of Caenorhabditis elegans at 1 to 160 ug/ml after 6 days. It is filed as functional, organism-based.
Assay [2] deals with Candida albicans. As to the kind of experiment: Antifungal activity against Candida albicans SC5314 assessed as inhibition of yeast to hypha transisition at >1 ug/ml after 3 hrs measured as increase in pseudohyphal cells. The assay is classed as functional, organism-based.
Assay [3] has as its system Candida albicans. As to the kind of experiment: Antifungal activity against fluconazole-resistant Candida albicans 103 after 48 hrs by spectrophotometry. The assay is classed as functional. To be noted: Candida albicans, 103, 48 h.
Assay [4] concerns Candida albicans. In words: Antifungal activity against Candida albicans SC5314 assessed as inhibition of yeast to hypha transisition at >1 ug/ml after 3 hrs measured as decrease in hyphae. It is filed as functional, organism-based.
Another assay has as its system Nannizzia gypsea. As to the kind of experiment: Antifungal activity against Microsporum gypseum after 48 hrs by spectrophotometry. It is filed as functional.
Assay [5] concerns Candida albicans. In words: Antifungal activity against fluconazole-resistant Candida albicans 805 after 48 hrs by spectrophotometry. The assay is classed as functional. To be noted: Candida albicans, 805, 48 h.
Assay [6] deals with Candida albicans. In words: Antifungal activity against fluconazole-resistant Candida albicans 0710922 after 48 hrs by spectrophotometry. The assay is classed as functional. The note with it: Candida albicans, 0710922, 48 h.
Assay [7] has as its system Candida albicans. In words: Antifungal activity against Candida albicans after 48 hrs by spectrophotometry relative to fluconazole. It is filed as functional.
The next assay deals with Trichophyton rubrum. In words: Antifungal activity against Trichophyton rubrum after 48 hrs by spectrophotometry. The assay is classed as functional.
Assay [8] concerns Candida albicans. In words: Antifungal activity against Candida albicans SC5314 assessed as inhibition of yeast to hypha transisition at >1 ug/ml after 3 hrs measured as increase in yeast cells. The assay is classed as functional, organism-based.
The subject of the next assay is Cryptococcus neoformans. In words: Antifungal activity against Cryptococcus neoformans after 48 hrs by spectrophotometry. The assay is classed as functional.
For the next assay, the system named is Candida parapsilosis. As to the kind of experiment: Antifungal activity against Candida parapsilosis after 48 hrs by spectrophotometry. It is filed as functional. To be noted: Lodderomyces parapsilosis.

Consider `OC(CN1CCC(c2nnc(-c3ccc(C(F)(F)F)cc3)o2)CC1)(Cn1cncn1)c1ccc(F)cc1F` (stereo unspecified), for which the MIC80 in the assay on Candida albicans [1] was found to be 0.031 µg/mL (≈ 0.058 µM); in the assay with Aspergillus fumigatus, 2 µg/mL (≈ 3.74 µM); in the assay on Nakaseomyces glabratus, 2 µg/mL (≈ 3.74 µM); in the assay with Candida albicans [3], 8 µg/mL (≈ 15 µM); against Nannizzia gypsea it was 1 µg/mL (≈ 1.87 µM); in the assay with Candida albicans [5] it was 16 µg/mL (≈ 29.9 µM). The MIC80 in the assay with Candida albicans [6] was found to be 16 µg/mL (≈ 29.9 µM); in the assay with Trichophyton rubrum, 1 µg/mL (≈ 1.87 µM); against Cryptococcus neoformans, 0.25 µg/mL (≈ 0.468 µM); in the assay on Candida parapsilosis, 0.5 µg/mL (≈ 0.935 µM). In addition, in the assay on Caenorhabditis elegans, the inhibition entry was “inactive”. For the same compound, the inhibition entry in the assay with Candida albicans [2], in the assay with Candida albicans [4] and in the assay with Candida albicans [8] was “Active” each time. Besides, the MIC50 was determined as 0.25 µg/mL (≈ 0.468 µM) in the assay with Candida albicans [3], 0.0625 µg/mL (≈ 0.117 µM) in the assay with Candida albicans [5] and 0.125 µg/mL (≈ 0.234 µM) in the assay on Candida albicans [6]. In addition, in the assay on Candida albicans [7], the Ratio worked out at 8.

As to `COc1ccc(-c2noc(C3CCN(CC(O)(Cn4cncn4)c4ccc(F)cc4F)CC3)n2)cc1` (stereo unspecified), the MIC80 was 0.016 µg/mL (≈ 0.0322 µM) in the assay with Candida albicans [1]; 1 µg/mL (≈ 2.01 µM) against Aspergillus fumigatus; 1 µg/mL (≈ 2.01 µM) in the assay on Nakaseomyces glabratus; 4 µg/mL (≈ 8.06 µM) against Candida albicans [3]; 2 µg/mL (≈ 4.03 µM) in the assay with Nannizzia gypsea; 8 µg/mL (≈ 16.1 µM) against Candida albicans [5]. Further, the MIC80 was 16 µg/mL (≈ 32.2 µM) against Candida albicans [6], 0.5 µg/mL (≈ 1.01 µM) against Trichophyton rubrum, 0.25 µg/mL (≈ 0.504 µM) against Cryptococcus neoformans and 0.25 µg/mL (≈ 0.504 µM) with Candida parapsilosis. In the assay on Caenorhabditis elegans, the inhibition entry is “inactive”. In addition, the inhibition result in the assay on Candida albicans [2], in the assay on Candida albicans [4] and in the assay on Candida albicans [8] was “Active” each time. Moreover, the MIC50 against Candida albicans [3] stood at 0.25 µg/mL (≈ 0.504 µM); with Candida albicans [5], 0.125 µg/mL (≈ 0.252 µM); in the assay on Candida albicans [6] it was 0.125 µg/mL (≈ 0.252 µM). Besides, in the assay on Candida albicans [7], the Ratio is reported as 8.

The MIC80 is the lowest concentration that inhibits either 80% of growth or 80% of the strains tested, depending on the study. A higher MIC80 goes with weaker potency. Broadly, the MIC50 is an inhibitory concentration at the 50% level, which refers to growth in some studies and to a panel of isolates in others. Read a high MIC50 as weaker potency.

Values taken from ChEMBL document CHEMBL3734719, “Discovery of highly potent triazoleantifungal agents with piperidine-oxadiazole side chains” (2015).
